Counter-ions that a name gives are not always drawn.
Legend:
[1] = system: liver injury induced by concanavalin A; experiment: Protection from liver injury induced by concanavalin A; assay type: in vivo; conditions: ip, plasmatic glutamic-pyruvic transaminase vs treated control group (=100), 8 hours after concanavalin A 0.3 mg/rat i.v.; for response vs control in vivo at 300 mg/kg: 300 mg/kg intraperitoneal; for response vs control in vivo at 500 mg/kg: 500 mg/kg intraperitoneal; for response vs control in vivo at 200 mg/kg: 200 mg/kg intraperitoneal
Source text: Determination of the capability of the compounds of the invention to protect the animals from the liver injury induced by concanavalin A.
The model in vivo used in the present example has been described in Tiegs G, Hentshel J, A Wendel. A T cell-dependent experimental liver injury in mice induced by Concanavalin A. J. Clin. Invest. 1992; 90:196-203.
The animals ([…] of Swiss stock weighing about 20 g) are divided in groups of at least No. 10 animals for group.
The animals receive concanavalin and solvent (treated control group), solvent (polyethylene glycol 400-untreated control group), concanavalin and tested compound dissolved in the solvent (treated groups).
Rats are treated intravenously with concanavalin A (0.3 mg/rat), and after 5 minutes they receive by intraperitoneal injection the tested compounds, at the doses reported in Table 1, dissolved in polyethylenglycol 400.
Eight hours after the concanavalin A injection all the animals were sacrificed and the blood collected and examined. The data, reported in Table 1, are expressed as value of the plasmatic glutamic-pyruvic transaminase percentage of the animals treated with the tested compound with respect to the animals of the treated control group.

[2] = system: Human adenocarcinoma (HT29) cells; experiment: Antiproliferative activity in cancerous cells, cellular growth by haemocytometer; assay type: cell-based; conditions: 96 hours, controls = 100, read-out: Proliferation %
Procedure: Determination of the Antiproliferative Activity of the Compounds of the Invention in Cancerous Cells.
Human adenocarcinoma (HT29) cells taken from colon affected by cancerous process were transferred into plates with 24 wells containing a cellular culture medium formed by 10% of foetal bovine serum, penicillin (50 U/ml), streptomycin ([…]) and PEG 400 (polyethylenglycol). After 24 hours a part of the plates is inoculated with the tested compounds dissolved in the carrier (PEG 400). 96 hours after the inoculation of the compounds the cellular growth was measured by haemocytometer. The results, reported in Table 2, are expressed as percentage of the cellular proliferation with respect to the controls.

[3] = system: Human adenocarcinoma HT29 cells; experiment: 3H-timidine incorporation in human adenocarcinoma HT29 cells; assay type: cell-based; conditions: 15 hours, cells treated only with Cisplatinum = 100; for timidine incorporation, With 25 μM Cisplatinum: compound 200 μM plus Cisplatinum 25 μM; for timidine incorporation, Without Cisplatinum: compound 200 μM
Procedure: Determination In Vitro of the Effect of the Compounds of the Invention on the Timidine Incorporation in Human Adeno-Carcinoma HT29 Cells. Human adenocarcinoma cells are sown on plates having 24 wells (2.5×10^5 cells/plate) with a standard culture medium. After 24 hours some plates are inoculated with the tested compounds dissolved in dimethylsulphoxide at a 200 μM concentration and others are treated with the tested compounds dissolved in dimethylsulphoxide at a 200 μM concentration in the presence of a solution of cisplatinum 25 μM. After 15 hours of incubation the plates are put into contact with a solution of ^3H-timidine […] (RAS. 3,000 Ci/mol). The cell monolayer of each plate is first washed twice with a cold saline buffer, then treated with TCA (trichloroacetic acid) at 5% for 10 minutes and then washed three times with absolute alcohol. The cells of each well are dissolved in 500 μl of NaOH 0.1N and the incorporated radioactivity is determined by scintallation counting. The obtained results are reported in Table 4 and expressed as percentage of ^3H-Timidine incorporated in the cells treated with the tested compounds and in the presence of Cisplatinum, considering equal to 100 the amount of ^3H-Timidine incorporated in the cells treated only with Cisplatinum.

[4] = system: T24 human epithelial cells of bladder cancer; experiment: Antiproliferative activity, MTT, bladder cancer line T24; assay type: cell-based; conditions: Epithelial cell, 96 h, 4 days, vs DMSO 1%, read-out: Inhibition of the proliferative activity (%); for inhibition at 100 µM: 10^-4 M; for inhibition at 10 µM: 10^-5 M; for inhibition at 1 µM: 10^-6 M
Procedure: (§1) Determination of the Antiproliferative Activity of the Compounds of the Invention in Cancerous Epithelial Cells of Bladder and Prostate.
(§2) The experiment was carried out by using three human epithelial cellular lines of the prostate cancer (PNT1A; LLNCaP; PC3) and three human epithelial cellular lines of the bladder cancer (T24; 647V; 1207), the various types of cellular lines are identified on the basis of the characteristics, in particular of the aggressiveness, of the cancerous process.
(§3) The cancerous cells are sown, with an initial concentration of 20,000 cells/cm^2, in plates having 96 wells with a cellular culture medium RPMI added with foetal bovine serum 5% and L-Glutamine 1%. Solutions in dimethylsulphoxide of the tested compounds at three different concentrations (10^−6 M; 10^−5M; 10^−4M) or the carrier (DMSO 1%) are added to the culture medium. 4 days after the treatment the cellular growth was measured by the method with MTT (3-[4,5-dimethylthiazol-2-yl]-2,5-diphenyltetrazolium bromide) de-scribed by Turner in: Turner T., Chen P., Goodly L. J., Wells A. Clin. Exp. Metastasis 1996, 14, 409-418. The results, reported in Table 3, are expressed as inhibition percentage of the cellular proliferation determined by measuring the cellular proliferation in the cellular cultures treated with the tested compounds with respect to that measured in cellular cultures treated with dimethylsulphoxide 1%.

[5] = system: LNCaP human epithelial cells of prostate cancer; experiment: Antiproliferative activity, MTT, prostate cancer line LNCaP; assay type: cell-based; conditions: 96 h, 4 days, vs DMSO 1%, read-out: Inhibition of the proliferative activity (%); for inhibition at 100 µM: 10^-4 M; for inhibition at 10 µM: 10^-5 M; for inhibition at 1 µM: 10^-6 M
Procedure: as §1, §2, §3

[6] = system: 647V human epithelial cells of bladder cancer; experiment: Antiproliferative activity, MTT, bladder cancer line 647V; assay type: cell-based; conditions: 96 h, 4 days, vs DMSO 1%, read-out: Inhibition of the proliferative activity (%); for inhibition at 100 µM: 10^-4 M; for inhibition at 10 µM: 10^-5 M; for inhibition at 1 µM: 10^-6 M
Procedure: as §1, §2, §3

[7] = system: human epithelial cellular lines of the prostate cancer and of the bladder cancer; experiment: Antiproliferative activity in prostate and bladder cancer lines, summary in words; assay type: cell-based; conditions: cellular lines LNCaP and PC3, and 647V, 1207
Procedure: as §2, §3
The compound of Ex. 7, reported in the Table with the simplified denomination of nitrooxybutyl ester of the aspirin der. with ferulic ac. is active, at 10^−5 concentrations, in prostate tumours as shown by the results obtained on the cellular lines LNCaP and PC3.

[8] = system: 1207 human epithelial cells of bladder cancer; experiment: Antiproliferative activity, MTT, bladder cancer line 1207; assay type: cell-based; conditions: Epithelial cell, 96 h, 4 days, vs DMSO 1%, read-out: Inhibition of the proliferative activity (%); for inhibition at 100 µM: 10^-4 M; for inhibition at 10 µM: 10^-5 M; for inhibition at 1 µM: 10^-6 M
Procedure: as §1, §2, §3

[9] = system: PNT1A human epithelial cells of prostate cancer; experiment: Antiproliferative activity, MTT, prostate cancer line PNT1A; assay type: cell-based; conditions: 96 h, 4 days, vs DMSO 1%, read-out: Inhibition of the proliferative activity (%); for inhibition at 100 µM: 10^-4 M; for inhibition at 10 µM: 10^-5 M; for inhibition at 1 µM: 10^-6 M
Procedure: as §1, §2, §3

[10] = system: PC3 human epithelial cells of prostate cancer; experiment: Antiproliferative activity, MTT, prostate cancer line PC3; assay type: cell-based; conditions: Epithelial cell, 96 h, 4 days, vs DMSO 1%, read-out: Inhibition of the proliferative activity (%); for inhibition at 100 µM: 10^-4 M; for inhibition at 10 µM: 10^-5 M; for inhibition at 1 µM: 10^-6 M
Procedure: as §1, §2, §3

In the case of `CC(=O)Oc1ccccc1C(=O)OCc1ccc(CO[N+](=O)[O-])cn1` [Ex. 3, 2-acetyloxybenzoic acid 5-(nitrooxymethyl)-2-methylpyridinyl ester hydrochloride], the response vs control in vivo at 300 mg/kg [1] is reported as 5%.

`CC(=O)Oc1ccccc1C(=O)Oc1ccccc1CO[N+](=O)[O-]` [Ex. 20, 2-acetyloxybenzoic acid 2-(nitrooxymethyl)phenyl ester] gave an activity at 20 µM ([2]; HT-29, 20 μM) of 50%.

`CC(=O)Nc1ccc(OC(=O)CCCO[N+](=O)[O-])cc1` [Ex. 9, 4-nitrooxybutanoic acid 4′-acetylamino phenyl ester] showed a response vs control in vivo at 500 mg/kg [1] of 10%.

For `CC(=O)Oc1ccccc1C(=O)O` [Aspirin, Acetylsalicylic Acid, reference compound], the response vs control in vivo at 300 mg/kg [1] was 120%, the activity at 500 µM ([2]; HT-29, 500 μM) was 100% and the “timidine incorporation, With 25 μM Cisplatinum” value [3] was 100%. For the same molecule, the “timidine incorporation, Without Cisplatinum” value [3] was 438%.

With `O=C(Oc1cccc(CO[N+](=O)[O-])c1)c1ccccc1O` [Ex. 15, 2-hydroxybenzoic Acid 3-(nitrooxymethyl)phenyl ester] the “timidine incorporation, With 25 μM Cisplatinum” value [3] was 50% and the “timidine incorporation, Without Cisplatinum” value [3] was 246%.

For `COc1cc(/C=C/C(=O)OCCCCO[N+](=O)[O-])ccc1OC(=O)C(C)c1ccc(CC(C)C)cc1` (stereo not drawn) [Ex. 16, Trans-3-[4-[α-methyl-[4-(-2-methylpropyl)benzene]acetyloxy]-3-methoxyphenyl]-2-propenoyl 4-(nitrooxy) butyl ester], the inhibition at 100 µM [4] was 22%, the inhibition at 10 µM [4] was 0% and the inhibition at 1 µM [4] was 0%. The inhibition at 100 µM [5] was 60%, the inhibition at 10 µM [5] was 33% and the inhibition at 1 µM [5] was 8%. For the same molecule, the inhibition at 100 µM [6] was 45%, the inhibition at 10 µM [6] was 0% and the inhibition at 1 µM [6] was 0%. The “activity in very aggressive prostate and bladder tumours (in words)” value [7] was “active”, the inhibition at 100 µM [8] was 43% and the inhibition at 10 µM [8] was 0%. It also gave an inhibition at 1 µM [8] of 2%, an inhibition at 100 µM [9] of 20% and an inhibition at 10 µM [9] of 4%. For the same molecule, the inhibition at 1 µM [9] was 0%, the inhibition at 100 µM [10] was 47% and the inhibition at 10 µM [10] was 9%. It also gave an inhibition at 1 µM [10] of 4%.

In the case of `CC(=O)Oc1ccccc1C(=O)OCc1ncccc1CO[N+](=O)[O-]` [Ex. 4, 2-acetyloxybenzoic acid 3-(nitrooxymethyl)-2-methylpyridinyl ester hydrochloride], the response vs control in vivo at 300 mg/kg [1] is reported as 7%.

With `O=C(O)c1ccccc1O` [Salicylic acid, Salicylic Acid, reference compound] the “timidine incorporation, With 25 μM Cisplatinum” value [3] was 100% and the “timidine incorporation, Without Cisplatinum” value [3] was 438%.

Work on `COc1cc(/C=C/C(=O)OCCCCO[N+](=O)[O-])ccc1OC(=O)C(C)c1ccc(-c2ccccc2)c(F)c1` (stereo not drawn) [Ex. 17, trans-3-[4-[2-fluoro-α-methyl-(1,1′-biphenyl)-4-acetyloxy]-3-methoxyphenyl]-2-propenoyl 4-(nitrooxy) butyl ester] yielded an inhibition at 100 µM [4] of 23%, an inhibition at 10 µM [4] of 0% and an inhibition at 1 µM [4] of 0%. It also gave an inhibition at 100 µM [5] of 58%, an inhibition at 10 µM [5] of 26% and an inhibition at 1 µM [5] of 1%. The inhibition at 100 µM [6] was 41%, the inhibition at 10 µM [6] was 13% and the inhibition at 1 µM [6] was 0%. The “activity in very aggressive prostate and bladder tumours (in words)” value [7] was “active”, the inhibition at 100 µM [8] was 34% and the inhibition at 10 µM [8] was 0%. The inhibition at 1 µM [8] was 0%, the inhibition at 100 µM [9] was 13% and the inhibition at 10 µM [9] was 2%. For the same molecule, the inhibition at 1 µM [9] was 0%, the inhibition at 100 µM [10] was 53% and the inhibition at 10 µM [10] was 20%. It also gave an inhibition at 1 µM [10] of 8%.

With `CC(=O)Oc1ccccc1C(=O)Oc1cccc(CO[N+](=O)[O-])c1` [Ex. 5, 3-nitrooxymethylphenyl ester of the 2-acetoxybenzoic acid] the activity at 300 µM ([2]; HT-29, 300 μM) was 40%, the “timidine incorporation, With 25 μM Cisplatinum” value [3] was 46% and the “timidine incorporation, Without Cisplatinum” value [3] was 192%.

For `COc1cc(/C=C/C(=O)Oc2ccc(NC(C)=O)cc2)ccc1OC(=O)CCCO[N+](=O)[O-]` [Ex. 8, trans-3-[4-(4′-nitrooxybutyryloxy)-3-methoxyphenyl]-2-propenoic acid 4-(acetylamino)phenyl ester], the response vs control in vivo at 500 mg/kg [1] was 8%.

Molecule `CC1=C(CC(=O)OCc2cccc(CO[N+](=O)[O-])n2)c2cc(F)ccc2/C1=C\c1ccc([S+](C)[O-])cc1` (centres unmarked) [Ex. 19] has a response vs control in vivo at 200 mg/kg [1] of 23%.

`CC(=O)Oc1ccccc1C(=O)OCc1cccc(CO[N+](=O)[O-])n1` [Ex. 1, 2-acetyloxybenzoic acid 6-(nitrooxymethyl)-2-methylpyridinyl ester hydrochloride] was tested, and the activity at 10 µM ([2]; HT-29, 10 μM) was 0%.

Molecule `CC(=O)Nc1ccc(O)cc1` [Paracetamol, reference compound] has a response vs control in vivo at 500 mg/kg [1] of 160%.

Work on `CC1=C(CC(=O)O)c2cc(F)ccc2/C1=C\c1ccc([S+](C)[O-])cc1` (centres unmarked) [Sulindac, reference compound] yielded a response vs control in vivo at 200 mg/kg [1] of 115% and an activity at 50 µM ([2]; HT-29, 50 μM) of 100%.

Source: patent US7629368B2, “Nitroderivatives as drugs for diseases having an inflammatory basis” (Nicox S.A., priority 2000, dated 2009)
